System: 885512-296-R-J2-PDC complex spheroid growth, % test/control
Assay: Anticancer human tumor 885512-296-R-J2-PDC patient-derived breast carcinoma cell line growth inhibition [Asc]
Details: for IC50: curve of first compound; for viability, T/C: stronger effect = lower value
Procedure, shortened: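 Complex solid-tumor spheroids incorporating human endothelial and mesenchymal stem cells received single agents or combinations over half-log dilution ranges anchored to clinical Cmax.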

[1] = second compound 0.1 µM, first compound 0.0316 µM
[2] = second compound 0.1 µM, first compound 0.1 µM
[3] = second compound 0.1 µM, first compound 0.316 µM
[4] = second compound 0.1 µM, first compound 1 µM
[5] = second compound 0.1 µM, first compound 3.16 µM
[6] = second compound 0.1 µM, first compound 10 µM
[7] = second compound 0.316 µM, first compound 0.0316 µM
[8] = second compound 0.316 µM, first compound 0.1 µM
[9] = second compound 0.316 µM, first compound 0.316 µM
[10] = second compound 0.316 µM, first compound 1 µM
[11] = second compound 0.316 µM, first compound 3.16 µM
[12] = second compound 0.316 µM, first compound 10 µM
[13] = second compound 1 µM, first compound 0.0316 µM
[14] = second compound 1 µM, first compound 0.1 µM
[15] = second compound 1 µM, first compound 0.316 µM
[16] = second compound 1 µM, first compound 1 µM
[17] = second compound 1 µM, first compound 3.16 µM
[18] = second compound 1 µM, first compound 10 µM
[19] = second compound 3.16 µM, first compound 0.0316 µM
[20] = second compound 3.16 µM, first compound 0.1 µM
[21] = second compound 3.16 µM, first compound 0.316 µM
[22] = second compound 3.16 µM, first compound 1 µM
[23] = second compound 3.16 µM, first compound 3.16 µM
[24] = second compound 3.16 µM, first compound 10 µM
[25] = second compound 10 µM, first compound 0.0316 µM
[26] = second compound 10 µM, first compound 0.1 µM
[27] = second compound 10 µM, first compound 0.316 µM
[28] = second compound 10 µM, first compound 1 µM
[29] = second compound 10 µM, first compound 3.16 µM
[30] = second compound 10 µM, first compound 10 µM
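Note: spheroids exposed to compounds for seven days.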
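Throughout, for viability, T/C: 100% = DMSO vehicle control wells.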

Row | IC50 (second compound 0.1 µM) [µM] | IC50 (second compound 0.316 µM) [µM] | IC50 (second compound 1 µM) [µM] | IC50 (second compound 3.16 µM) [µM] | IC50 (second compound 10 µM) [µM] | Structure (SMILES) | viability, T/C [1] [%] | viability, T/C [2] [%] | viability, T/C [3] [%] | viability, T/C [4] [%] | viability, T/C [5] [%] | viability, T/C [6] [%] | viability, T/C [7] [%] | viability, T/C [8] [%] | viability, T/C [9] [%] | viability, T/C [10] [%] | viability, T/C [11] [%] | viability, T/C [12] [%] | viability, T/C [13] [%] | viability, T/C [14] [%] | viability, T/C [15] [%] | further results
1 | 1.87 | 1.92 | 1.91 | 1.82 | 2.14 | C=C(F)C(=O)N1CCN(c2nc(OCC3CCCN3C)nc3c2CCN(c2cccc4cccc(Cl)c24)C3)CC1CC#N (stereo not given) + Cc1c(S(C)(=O)=O)c(-c2cc(F)cc(N3CCN(c4ccc(NS(=O)(=O)c5ccc(NC(CCN6CCC(C(=O)OCCCP(=O)(O)O)CC6)CSc6ccccc6)c(S(=O)(=O)C(F)(F)F)c5)cc4)CC3)c2)c(-c2ccc(Cl)cc2)n1C(C)C | 85.7 | 91 | 93.2 | 85.9 | 19.7 | 0.11 | 76.3 | 96.2 | 95 | 90.5 | 19.7 | 0.13 | 83.2 | 84.9 | 97.1 | viability, T/C [16]: 91.5%; viability, T/C [17]: 19.5%; viability, T/C [18]: 0.12%; viability, T/C [19]: 101%; viability, T/C [20]: 90.3%; viability, T/C [21]: 92.1%; viability, T/C [22]: 82.6%; viability, T/C [23]: 20.3%; viability, T/C [24]: 0.12%; viability, T/C [25]: 115%; viability, T/C [26]: 107%; viability, T/C [27]: 96.5%; viability, T/C [28]: 100%; viability, T/C [29]: 24.4%; viability, T/C [30]: 0.18%
2 | > 10 | > 10 | > 10 | > 10 | > 10 | C=CC(=O)N1CCN(c2nc(=O)n(-c3c(C)ccnc3C(C)C)c3nc(-c4c(O)cccc4F)c(F)cc23)C(C)C1 (stereo not given) + Cc1c(S(C)(=O)=O)c(-c2cc(F)cc(N3CCN(c4ccc(NS(=O)(=O)c5ccc(NC(CCN6CCC(C(=O)OCCCP(=O)(O)O)CC6)CSc6ccccc6)c(S(=O)(=O)C(F)(F)F)c5)cc4)CC3)c2)c(-c2ccc(Cl)cc2)n1C(C)C | 85.3 | 80.7 | 92.2 | 83.6 | 87.6 | 55.8 | 94.3 | 87.2 | 86.8 | 81.2 | 101 | 74.7 | 80.6 | 73.5 | 93.3 | viability, T/C [16]: 104%; viability, T/C [17]: 85.7%; viability, T/C [18]: 62%; viability, T/C [19]: 98.7%; viability, T/C [20]: 90.3%; viability, T/C [21]: 109%; viability, T/C [22]: 106%; viability, T/C [23]: 90.2%; viability, T/C [24]: 68.3%; viability, T/C [25]: 119%; viability, T/C [26]: 117%; viability, T/C [27]: 114%; viability, T/C [28]: 114%; viability, T/C [29]: 98.8%; viability, T/C [30]: 71.6%
